This is an account of results in patent US7700782B2, “Compounds 569” (AstraZeneca AB, priority 2007, dated 2010).

Counter-ions that a name gives are not always drawn.

In the test the target is T1, Adrenergic β2 (Homo sapiens, UniProt P07550).
T1 construct: Adherent H292 cells were removed from tissue culture flasks; endogenous in cells; host or cells: H292 cells
T1 sequence (P07550 whole entry): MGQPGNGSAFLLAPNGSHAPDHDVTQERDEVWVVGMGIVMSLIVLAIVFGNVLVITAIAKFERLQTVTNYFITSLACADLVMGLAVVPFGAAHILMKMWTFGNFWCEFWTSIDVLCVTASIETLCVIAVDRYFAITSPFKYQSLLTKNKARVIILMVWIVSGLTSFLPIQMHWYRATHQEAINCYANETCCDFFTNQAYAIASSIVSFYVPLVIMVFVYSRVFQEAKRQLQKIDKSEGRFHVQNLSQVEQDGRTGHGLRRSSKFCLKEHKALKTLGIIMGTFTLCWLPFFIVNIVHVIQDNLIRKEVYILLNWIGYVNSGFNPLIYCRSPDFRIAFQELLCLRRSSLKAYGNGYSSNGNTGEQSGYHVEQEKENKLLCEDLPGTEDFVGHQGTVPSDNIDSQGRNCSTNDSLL
Kind of test: Adrenergic β2 mediated cAMP production in H292 cells (AlphaScreen cAMP detection). It is filed as cell-based. As to conditions: Intrinsic Activity, fraction relative to the maximum activity determined for formoterol. The gist of the method: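 H292 cells, 5000/well, preincubated 10 min with rolipram (final 300 μM, 1.6% DMSO) in HEPES pH 7.4 HBSS, then compound 60 min at room temperature. Lysate cAMP quantified by AlphaScreen against a cAMP standard curve. pEC50 and intrinsic activity (fraction of formoterol maximum) from four-parameter logistic fits.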
A general note: Changes in cAMP serve as a functional read-out for many G protein-coupled receptors.
For the compound `O=C(CCNCCc1ccc(F)cc1Cl)N(CCNCCc1ccc(O)c2[nH]c(=O)sc12)C1CCCCCC1` [Example 57, N^3-[2-(2-Chloro-4-fluorophenyl)ethyl]-N^1-cycloheptyl-N^1-(2-{[2-(4-hydroxy-2-oxo-2,3-dihydro-1,3-benzothiazol-7-yl)ethyl]amino}ethyl)-β-alaninamide bis-trifluoroacetic acid salt], the “β2 Int Act” value was found to be 0.72.
Consider `O=C(CCNCCc1cc(F)cc(F)c1)N(CCNCCc1ccc(O)c2[nH]c(=O)sc12)C1CCCCCC1` [Example 58, N^1-Cycloheptyl-N^3-[2-(3,5-difluorophenyl)ethyl]-N^1-(2-{[2-(4-hydroxy-2-oxo-2,3-dihydro-1,3-benzothiazol-7-yl)ethyl]amino}ethyl)-β-alaninamide bis-trifluoroacetic acid salt], for which the “β2 Int Act” value stood at 0.84.
`O=C(CCNCCc1ccccc1)N(CCNCCc1ccc(O)c2[nH]c(=O)sc12)CC12CC3CC(CC(C3)C1)C2` [Example 59, N^1-(1-Adamantylmethyl)-N^1-(2-{[2-(4-hydroxy-2-oxo-2,3-dihydro-1,3-benzothiazol-7-yl)ethyl]amino}ethyl)-N^3-(2-phenylethyl)-β-alaninamide bis-trifluoroacetic acid salt]: the “β2 Int Act” value is 0.85.
As for `O=C(CCNCCc1cccc(F)c1)N(CCNCCc1ccc(O)c2[nH]c(=O)sc12)CC12CC3CC(CC(C3)C1)C2` [Example 60, N^1-(1-Adamantylmethyl)-N^3-[2-(3-fluorophenyl)ethyl]-N^1-(2-{[2-(4-hydroxy-2-oxo-2,3-dihydro-1,3-benzothiazol-7-yl)ethyl]amino}ethyl)-β-alaninamide bis-trifluoroacetic acid salt], the “β2 Int Act” value is 0.76.
Take `O=C(CCNCCc1ccc(F)cc1)N(CCNCCc1ccc(O)c2[nH]c(=O)sc12)CC12CC3CC(CC(C3)C1)C2` [Example 61, N^1-(1-Adamantylmethyl)-N^3-[2-(4-fluorophenyl)ethyl]-N^1-(2-{[2-(4-hydroxy-2-oxo-2,3-dihydro-1,3-benzothiazol-7-yl)ethyl]amino}ethyl)-β-alaninamide bis-trifluoroacetic acid salt]: the “β2 Int Act” value is 0.79.
As for `O=C(CCNCCc1ccccc1)N(CCNCCc1ccc(O)c2[nH]c(=O)sc12)C1CCSCC1` [Example 62, N^1-(2-{[2-(4-Hydroxy-2-oxo-2,3-dihydro-1,3-benzothiazol-7-yl)ethyl]amino}ethyl)-N^3-(2-phenylethyl)-N^1-(tetrahydro-2H-thiopyran-4-yl)-β-alaninamide bis-trifluoroacetic acid salt], the “β2 Int Act” value is listed as 0.87.
In the case of `CCCC(CCC)N(CCNCCc1ccc(O)c2[nH]c(=O)sc12)C(=O)CCNCCc1cccc(F)c1` [Example 63, N^3-[2-(3-Fluorophenyl)ethyl]-N^1-(2-{[2-(4-hydroxy-2-oxo-2,3-dihydro-1,3-benzothiazol-7-yl)ethyl]amino}ethyl)-N^1-(1-propylbutyl)-β-alaninamide bis-trifluoroacetic acid salt], the “β2 Int Act” value turned out to be 0.93.
For the compound `CCCC(CCC)N(CCNCCc1ccc(O)c2[nH]c(=O)sc12)C(=O)CCNCCc1ccc(F)cc1` [Example 64, N^3-[2-(4-Fluorophenyl)ethyl]-N^1-(2-{[2-(4-hydroxy-2-oxo-2,3-dihydro-1,3-benzothiazol-7-yl)ethyl]amino}ethyl)-N^1-(1-propylbutyl)-β-alaninamide bis-trifluoroacetic acid salt], the “β2 Int Act” value was 0.70.
`CC(C)(CO)CN(CCNCCc1ccc(O)c2[nH]c(=O)sc12)C(=O)CCNCCc1ccccc1Cl` [Example 65, N^3-[2-(2-Chlorophenyl)ethyl]-N^1-(3-hydroxy-2,2-dimethylpropyl)-N^1-(2-{[2-(4-hydroxy-2-oxo-2,3-dihydro-1,3-benzothiazol-7-yl)ethyl]amino}ethyl)-β-alaninamide bis-trifluoroacetic acid salt]: the “β2 Int Act” value was determined as 0.59.
`CC(C)(CO)CN(CCNCCc1ccc(O)c2[nH]c(=O)sc12)C(=O)CCNCCc1cccc(Cl)c1` [Example 66, N^3-[2-(3-Chlorophenyl)ethyl]-N^1-(3-hydroxy-2,2-dimethylpropyl)-N^1-(2-{[2-(4-hydroxy-2-oxo-2,3-dihydro-1,3-benzothiazol-7-yl)ethyl]amino}ethyl)-β-alaninamide bis-trifluoroacetic acid salt]: the “β2 Int Act” value came out at 0.59.
On to `CC(C)(CO)CN(CCNCCc1ccc(O)c2[nH]c(=O)sc12)C(=O)CCNCCc1cccc(Cl)c1Cl` [Example 67, N^3-[2-(2,3-Dichlorophenyl)ethyl]-N^1-(3-hydroxy-2,2-dimethylpropyl)-N^1-(2-{[2-(4-hydroxy-2-oxo-2,3-dihydro-1,3-benzothiazol-7-yl)ethyl]amino}ethyl)-β-alaninamide bis-trifluoroacetic acid salt], for which the “β2 Int Act” value came out at 0.70.
As to `COc1ccc(CCNCCC(=O)N(CCNCCc2ccc(O)c3[nH]c(=O)sc23)C2CCCCC2)cc1` [Example 68, N^1-Cyclohexyl-N^1-(2-{[2-(4-hydroxy-2-oxo-2,3-dihydro-1,3-benzothiazol-7-yl)ethyl]amino}ethyl)-N^3-[2-(4-methoxyphenyl)ethyl]-β-alaninamide bis-trifluoroacetic acid salt], the “β2 Int Act” value is given as 0.68.
As to `NS(=O)(=O)c1ccc(CCNCCC(=O)N(CCNCCc2ccc(O)c3[nH]c(=O)sc23)C2CCCCC2)cc1` [Example 69, N^3-{2-[4-(Aminosulfonyl)phenyl]ethyl}-N^1-cyclohexyl-N^1-(2-{[2-(4-hydroxy-2-oxo-2,3-dihydro-1,3-benzothiazol-7-yl)ethyl]amino}ethyl)-β-alaninamide bis-trifluoroacetic acid salt], the “β2 Int Act” value came out at 0.82.
Take `COc1cccc(CCNCCC(=O)N(CCNCCc2ccc(O)c3[nH]c(=O)sc23)C2CCCCC2)c1` [Example 70, N^1-Cyclohexyl-N^1-(2-{[2-(4-hydroxy-2-oxo-2,3-dihydro-1,3-benzothiazol-7-yl)ethyl]amino}ethyl)-N^3-[2-(3-methoxyphenyl)ethyl]-β-alaninamide bis-trifluoroacetic acid salt]: the “β2 Int Act” value is recorded as 0.84.
`O=C(CCNCCc1cccc(O)c1)N(CCNCCc1ccc(O)c2[nH]c(=O)sc12)C1CCCCC1` [Example 71, N^1-Cyclohexyl-N^1-(2-{[2-(4-hydroxy-2-oxo-2,3-dihydro-1,3-benzothiazol-7-yl)ethyl]amino}ethyl)-N^3-[2-(3-hydroxyphenyl)ethyl]-β-alaninamide bis-trifluoroacetic acid salt]: the “β2 Int Act” value amounted to 0.97.
For `O=C(CCNCCc1ccc(Cl)s1)N(CCNCCc1ccc(O)c2[nH]c(=O)sc12)C1CCCCC1` [Example 72, N^3-[2-(5-Chloro-2-thienyl)ethyl]-N^1-cyclohexyl-N^1-(2-{[2-(4-hydroxy-2-oxo-2,3-dihydro-1,3-benzothiazol-7-yl)ethyl]amino}ethyl)-β-alaninamide bis-trifluoroacetic acid salt], the “β2 Int Act” value was determined as 0.89.
In the case of `O=C(CCNCCc1ccc(F)c(F)c1)N(CCNCCc1ccc(O)c2[nH]c(=O)sc12)C1CCCCC1` [Example 73, N^1-Cyclohexyl-N^3-[2-(3,4-difluorophenyl)ethyl]-N^1-(2-{[2-(4-hydroxy-2-oxo-2,3-dihydro-1,3-benzothiazol-7-yl)ethyl]amino}ethyl)-β-alaninamide bis-trifluoroacetic acid salt], the “β2 Int Act” value is 0.85.
Take `O=C(CCNC[C@@H](O)c1ccccc1)N(CCNCCc1ccc(O)c2[nH]c(=O)sc12)C1CCCCC1` [Example 74, N^1-Cyclohexyl-N^1-(2-{[2-(4-hydroxy-2-oxo-2,3-dihydro-1,3-benzothiazol-7-yl)ethyl]amino}ethyl)-N^3-[(2S)-2-hydroxy-2-phenylethyl]-β-alaninamide bis-trifluoroacetic acid salt]: the “β2 Int Act” value was 0.79.
With `O=C(CCNC[C@H](O)c1ccccc1)N(CCNCCc1ccc(O)c2[nH]c(=O)sc12)C1CCCCC1` [Example 75, N^1-Cyclohexyl-N^1-(2-{[2-(4-hydroxy-2-oxo-2,3-dihydro-1,3-benzothiazol-7-yl)ethyl]amino}ethyl)-N^3-[(2R)-2-hydroxy-2-phenylethyl]-β-alaninamide bis-trifluoroacetic acid salt], the “β2 Int Act” value was found to be 0.91.
Under `O=C(CCNCCc1ccc2c(c1)OCO2)N(CCNCCc1ccc(O)c2[nH]c(=O)sc12)C1CCCCC1` [Example 76, N^3-[2-(1,3-Benzodioxol-5-yl)ethyl]-N^1-cyclohexyl-N^1-(2-{[2-(4-hydroxy-2-oxo-2,3-dihydro-1,3-benzothiazol-7-yl)ethyl]amino}ethyl)-β-alaninamide bis-trifluoroacetic acid salt] stands 0.68; under `O=C(CCNCCc1nc2ccccc2[nH]1)N(CCNCCc1ccc(O)c2[nH]c(=O)sc12)C1CCCCC1` [Example 77, N^3-[2-(1H-Benzimidazol-2-yl)ethyl]-N^1-cyclohexyl-N^1-(2-{[2-(4-hydroxy-2-oxo-2,3-dihydro-1,3-benzothiazol-7-yl)ethyl]amino}ethyl)-β-alaninamide tris-trifluoroacetic acid salt], 0.54; under `O=C(CCNCCc1cc(F)cc(F)c1)N(CCNCCc1ccc(O)c2[nH]c(=O)sc12)C1CCCCC1` [Example 78, N^1-Cyclohexyl-N^3-[2-(3,5-difluorophenyl)ethyl]-N^1-(2-{[2-(4-hydroxy-2-oxo-2,3-dihydro-1,3-benzothiazol-7-yl)ethyl]amino}ethyl)-β-alaninamide bis-trifluoroacetic acid salt], 0.91.
In the case of `O=C(CCNCCc1cc(F)ccc1F)N(CCNCCc1ccc(O)c2[nH]c(=O)sc12)C1CCCCC1` [Example 79, N^1-Cyclohexyl-N^3-[2-(2,5-difluorophenyl)ethyl]-N^1-(2-{[2-(4-hydroxy-2-oxo-2,3-dihydro-1,3-benzothiazol-7-yl)ethyl]amino}ethyl)-β-alaninamide bis-trifluoroacetic acid salt], the “β2 Int Act” value is recorded as 0.84.
